Converted amounts (≈) assume the structure as drawn.
Columns and labels:
Assay type in all cases: functional
Staphylococcus aureus [1] = test: Antibacterial activity against erythromycin-susceptible Staphylococcus aureus ATCC 25923 by broth microdilution method
Staphylococcus aureus [2] = test: Antibacterial activity against erythromycin-resistant, methicillin-susceptible Staphylococcus aureus A265 by broth microdilution method
Staphylococcus aureus [3] = test: Antibacterial activity against erythromycin, methicillin-resistant Staphylococcus aureus A333 by broth microdilution method
Streptococcus pneumoniae [4] = test: Antibacterial activity against erythromycin-susceptible Streptococcus pneumoniae ATCC 49619 by broth microdilution method
Streptococcus pneumoniae [5] = test: Antibacterial activity against erythromycin-resistant Streptococcus pneumoniae 3469 by broth microdilution method
Haemophilus influenzae [6] = test: Antibacterial activity against ampicillin-susceptible Haemophilus influenzae ATCC 49247 by broth microdilution method
Haemophilus influenzae [7] = test: Antibacterial activity against ampicillin-resistant Haemophilus influenzae 3300 by broth microdilution method

Compound	MIC (Staphylococcus aureus [1]) [µg/mL]	MIC (Staphylococcus aureus [2]) [µg/mL]	MIC (Staphylococcus aureus [3]) [µg/mL]	MIC (Streptococcus pneumoniae [4]) [µg/mL]	MIC (Streptococcus pneumoniae [5]) [µg/mL]	MIC (Haemophilus influenzae [6]) [µg/mL]	MIC (Haemophilus influenzae [7]) [µg/mL]
CC[C@H]1OC(=O)[C@H](C)[C@@H](OC(=O)NCCc2ccccc2Cl)[C@H](C)[C@@H](O[C@@H]2O[C@H](C)C[C@H](N(C)C)[C@H]2O)[C@](C)(OC)C[C@@H](C)C(=O)[C@@H](C)[C@@H](OC)[C@]1(C)O	4 (≈ 5.09 µM)	1 (≈ 1.27 µM)	> 64	0.125 (≈ 0.159 µM)	0.125 (≈ 0.159 µM)	8 (≈ 10.2 µM)	16 (≈ 20.4 µM)
CC[C@H]1OC(=O)[C@H](C)[C@@H](OC(=O)NCCc2ccccc2Br)[C@H](C)[C@@H](O[C@@H]2O[C@H](C)C[C@H](N(C)C)[C@H]2O)[C@](C)(OC)C[C@@H](C)C(=O)[C@@H](C)[C@@H](OC)[C@]1(C)O	4 (≈ 4.82 µM)	4 (≈ 4.82 µM)	64 (≈ 77.1 µM)	0.125 (≈ 0.151 µM)	8 (≈ 9.64 µM)	8 (≈ 9.64 µM)	4 (≈ 4.82 µM)
CC[C@H]1OC(=O)[C@H](C)[C@@H](O[C@H]2C[C@@](C)(OC)[C@@H](O)[C@H](C)O2)[C@H](C)[C@@H](O[C@@H]2O[C@H](C)C[C@H](N(C)C)[C@H]2O)[C@](C)(O)C[C@@H](C)CN(C)[C@H](C)[C@@H](O)[C@]1(C)O [AZITHROMYCIN]	0.5 (≈ 0.668 µM)	8 (≈ 10.7 µM)	> 64	0.5 (≈ 0.668 µM)	4 (≈ 5.34 µM)	4 (≈ 5.34 µM)	4 (≈ 5.34 µM)
CC[C@H]1OC(=O)[C@H](C)[C@@H](O[C@H]2C[C@@](C)(OC)[C@@H](O)[C@H](C)O2)[C@H](C)[C@@H](O[C@@H]2O[C@H](C)C[C@H](N(C)C)[C@H]2O)[C@](C)(OC)C[C@@H](C)C(=O)[C@H](C)[C@@H](O)[C@]1(C)O [CLARITHROMYCIN]	0.25 (≈ 0.334 µM)	4 (≈ 5.35 µM)	> 64	0.25 (≈ 0.334 µM)	2 (≈ 2.67 µM)	8 (≈ 10.7 µM)	8 (≈ 10.7 µM)
CC[C@H]1OC(=O)[C@H](C)[C@@H](O[C@H]2C[C@@](C)(OC)[C@@H](O)[C@H](C)O2)[C@H](C)[C@@H](O[C@@H]2O[C@H](C)C[C@H](N(C)C)[C@H]2O)[C@](C)(O)C[C@@H](C)C(=O)[C@H](C)[C@@H](O)[C@]1(C)O [ERYTHROMYCIN]	0.125 (≈ 0.17 µM)	2 (≈ 2.73 µM)	> 64	0.25 (≈ 0.341 µM)	1 (≈ 1.36 µM)	16 (≈ 21.8 µM)	16 (≈ 21.8 µM)
